One may read the inhibition as the change of the read-out against control, counted positive when it falls.

Calls of active or inactive are those of the source. No cut-off for these calls is given here.

Results on 11 compounds are retold here after ChEMBL document CHEMBL4837259, “Comprehensive Approach of 19F Nuclear Magnetic Resonance, Enzymatic, and In Silico Methods for Site-Specific Hit Selection and Validation of Fragment Molecules that Inhibit Methionine γ-Lyase Activity” (J Med Chem, 2021).

The subject of assay [1] is Fusobacterium nucleatum. The assay is described as follows: Inhibition of Fusobacterium nucleatum ATCC 25586 recombinant MGL R58A mutant expressed in Escherichia coli BL21 (DE3) assessed as decrease in signal intensity by measuring recovery ratio by 19F NMR based competition assay relative to wild type. Further details: scale not given: the % may be the effect or the level left.

Assay [2] addresses T1, L-methionine gamma-lyase (Fusobacterium nucleatum subsp. nucleatum) (UniProt Q8RDT4).
T1 sequence (whole entry): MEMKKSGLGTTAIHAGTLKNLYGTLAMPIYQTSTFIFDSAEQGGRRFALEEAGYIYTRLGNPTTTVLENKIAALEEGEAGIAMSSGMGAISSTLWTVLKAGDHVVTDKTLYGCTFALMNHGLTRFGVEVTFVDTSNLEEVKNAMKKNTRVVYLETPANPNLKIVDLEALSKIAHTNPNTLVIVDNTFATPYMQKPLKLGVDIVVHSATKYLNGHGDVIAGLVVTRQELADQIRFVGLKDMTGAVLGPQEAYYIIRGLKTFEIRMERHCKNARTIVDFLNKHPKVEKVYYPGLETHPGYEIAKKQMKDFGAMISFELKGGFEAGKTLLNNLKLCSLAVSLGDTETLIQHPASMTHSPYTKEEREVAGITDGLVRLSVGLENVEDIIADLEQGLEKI
The assay can be described thus: Inhibition of Fusobacterium nucleatum ATCC 25586 recombinant wild type MGL expressed in Escherichia coli BL21 (DE3) assessed as decrease in signal intensity by 19F NMR based competition assay relative to control. Further details: concentration or dose not given beside the values.

Assay [3] relates to Fusobacterium nucleatum. The assay can be described thus: Inhibition of Fusobacterium nucleatum ATCC 25586 recombinant MGL C113S mutant expressed in Escherichia coli BL21 (DE3) assessed as decrease in signal intensity by measuring recovery ratio by 19F NMR based competition assay relative to wild type. Further details: scale not given: the % may be the effect or the level left.

For assay [4], the system named is Fusobacterium nucleatum. The assay can be described thus: Inhibition of Fusobacterium nucleatum ATCC 25586 recombinant MGL R58K mutant expressed in Escherichia coli BL21 (DE3) assessed as decrease in signal intensity by measuring recovery ratio by 19F NMR based competition assay relative to wild type. Further details: scale not given: the % may be the effect or the level left.

Assay [5] has as its system Fusobacterium nucleatum. The assay can be described thus: Inhibition of Fusobacterium nucleatum ATCC 25586 recombinant MGL Y56F mutant expressed in Escherichia coli BL21 (DE3) assessed as decrease in signal intensity by measuring recovery ratio by 19F NMR based competition assay relative to wild type. Further details: concentration or dose not given beside the values.

For assay [6], the system named is Fusobacterium nucleatum. The assay can be described thus: Inhibition of Fusobacterium nucleatum ATCC 25586 recombinant MGL K238A mutant expressed in Escherichia coli BL21 (DE3) assessed as decrease in signal intensity by measuring recovery ratio by 19F NMR based competition assay relative to wild type. Further details: concentration or dose not given beside the values.

The target of assay [7] is T1, L-methionine gamma-lyase (Fusobacterium nucleatum subsp. nucleatum). The assay is described as follows: Inhibition of Fusobacterium nucleatum ATCC 25586 recombinant wild type MGL expressed in Escherichia coli BL21 (DE3) assessed as formation of 2-ketobutyrate using L-methionine as substrate by enzymatic assay. Further details: concentration or dose not given beside the values. The settings on record: concentration not given here.

Assay [8] concerns Fusobacterium nucleatum. The assay is described as follows: Inhibition of Fusobacterium nucleatum ATCC 25586 recombinant MGL R373A mutant expressed in Escherichia coli BL21 (DE3) assessed as decrease in signal intensity by measuring recovery ratio by 19F NMR based competition assay relative to wild type. Further details: scale not given: the % may be the effect or the level left.

Assay [9] relates to Fusobacterium nucleatum. The assay can be described thus: Inhibition of Fusobacterium nucleatum ATCC 25586 recombinant MGL R373K mutant expressed in Escherichia coli BL21 (DE3) assessed as decrease in signal intensity by measuring recovery ratio by 19F NMR based competition assay relative to wild type. Further details: concentration or dose not given beside the values.
Assay [10] concerns Fusobacterium nucleatum. The assay is described as follows: Inhibition of Fusobacterium nucleatum ATCC 25586 recombinant MGL Y111F mutant expressed in Escherichia coli BL21 (DE3) assessed as decrease in signal intensity by measuring recovery ratio by 19F NMR based competition assay relative to wild type. Further details: concentration or dose not given beside the values.

As for `CC(C)(C)OC(=O)N1CCC(CN)(c2ccccc2C(F)(F)F)CC1`, the outcome in [1], in [8], in assay [9] and in assay [10] was Active. The Activity in assay [2] stood at 75%; in assay [3], 50%; in [4] it was 80%; in assay [5], 80%; in [6], 50%. In addition, the inhibition in assay [7] turned out to be 41%.

Take `O=C(O)c1cn(-c2ccccc2F)cn1`: the Activity in assay [1] worked out at 80%; in assay [2], 26%; in [4], 80%; in [8], 50%. In addition, the result in [3], in [5], in assay [9] and in assay [10] was Active. The outcome in assay [6] was inactive. Also, in assay [7], the inhibition is -5.3%.

On to `Nc1cc(F)c(OCC2CCC2)c(F)c1`, for which the outcome in [1] and in assay [10] was Active. Besides, the Activity was 55% in assay [2]; 50% in [3]; 50% in assay [4]; 80% in [5]; 50% in [6]. The inhibition in [7] is 11.6%. For the same compound, the outcome in assay [8] and in [9] was inactive.

`O=C(O)c1cn(-c2cccc(F)c2)cn1`: the Activity in assay [1] worked out at 80%; in assay [2], 36%; in assay [4], 80%; in assay [5] it was 80%; in assay [8], 80%. Besides, the outcome in [3] was Active. Further, the outcome in assay [6], in assay [9] and in assay [10] was inactive. Also, the inhibition in assay [7] was -4.1%.

For the compound `CC(C)(Cc1cccc(C(F)(F)F)c1)C(=O)O`, the Activity in assay [1] was 80%; in assay [2] it was 64%; in assay [4] it was 80%; in [5] it was 80%; in assay [6], 50%; in [8], 80%. Further, the Activity in assay [10] came to 50%. The outcome in assay [3] and in assay [9] was Active. Also, in assay [7], the inhibition came out at 27.5%.

For `CC(C)(C)OC(=O)N1CCC(CN)(c2cccc(F)c2)CC1`, the outcome in assay [1], in assay [3], in assay [6], in [9] and in assay [10] was Active. In addition, the results for the Activity in assay [2], in assay [4] and in [5] were 65%, 80% and 50%, respectively. The inhibition in assay [7] is 16.1%. In addition, the outcome in assay [8] was inactive.

`CC(C)(CC(=O)O)c1ccc(F)cc1`: the Activity in assay [1] turned out to be 80%; in assay [2] it was 57%; in [4] it was 80%; in [5] it was 80%; in assay [6] it was 50%; in assay [8], 80%. The Activity in assay [10] amounted to 80%. In addition, the outcome in assay [3] and in [9] was inactive. The inhibition in assay [7] was -3.3%.

In the case of `O=C(O)c1cncc(OCC(F)(F)F)c1`, the Activity in [1] turned out to be 80%; in [2], 35%; in assay [4] it was 80%; in assay [5], 80%; in [8] it was 50%; in [10], 50%. The result in assay [3] was inactive. Also, the outcome in [6] and in [9] was Active. In addition, the inhibition in assay [7] amounted to 9.1%.

For the compound `CC(C)(C)OC(=O)N1CCC(CN)(Cc2ccc(C(F)(F)F)cc2)CC1`, the Activity in assay [1] stood at 50%; in assay [2] it was 78%; in assay [3], 50%; in assay [4] it was 50%; in [5], 80%. Moreover, the result in [6], in assay [8], in assay [9] and in [10] was Active. For the same compound, the inhibition in assay [7] was 78.3%.

With `O=C(O)c1cn(-c2ccc(F)cc2)cn1`, the Activity in [1] is 80%; in [2], 58%; in assay [3] it was 50%; in assay [4], 80%; in assay [8], 80%. For the same compound, the outcome in assay [5], in [6], in assay [9] and in assay [10] was Active. Further, the inhibition in assay [7] amounted to 6.2%.

Regarding `CCOC(=O)c1nc(-c2ccc(F)cc2)no1`, the Activity in [1] came out at 80%; in assay [2], 84%; in assay [4] it was 50%; in [5], 80%; in assay [8] it was 80%; in assay [9], 50%. In addition, the Activity in [10] came to 50%. Besides, the result in assay [3] and in assay [6] was Active. In addition, the inhibition in assay [7] was 33.1%.
